Source: ChEMBL document CHEMBL5321279 (J Med Chem, 2023)
Active and inactive are the calls of the source. The rule behind the calls is not given here.

Experiments:
[1] = (§1) Cytotoxicity against stimulated human PBMC cells assessed as reduction in cell growth measured after 5 days by CellTiter-Glo assay; type: toxicity, cell-based; conditions: stimulated PBMC, time 5 day
[2] = AUC(0 to 24 hrs) in rat at 5 mg/kg, po measured upto 24 hrs by LC-MS/MS analysis; type: ADME, organism-based; design: dose 5 mg/kg, time < 24 hrs, route po; conditions: in vivo
in vivo = conditions: dog, po, 5 mg/kg
[3] = AUC(0 to 24 hrs) in African green monkey at 5 mg/kg, po measured upto 24 hrs by LC-MS/MS analysis; type: ADME, organism-based; design: time < 24 hrs, dose 5 mg/kg, route po; conditions: chlorocebus sabaeus, in vivo
[4] = AUC(0 to 24 hrs) in cynomolgus monkey at 5 mg/kg, po measured upto 24 hrs by LC-MS/MS analysis; type: ADME, organism-based, Macaca fascicularis; design: dose 5 mg/kg, time < 24 hrs, route po; conditions: in vivo
[5] = Stability of compound in dog plasma assessed as half life measured upto 4 hrs by LC-MS/MS analysis; type: ADME, cell-free, Canis lupus familiaris
PBMC = experiment: as §1; type: toxicity, cell-based; conditions: pbmc, 120 h, time 5 day
[6] = Stability of compound in cynomolgus monkey plasma assessed as half life measured upto 4 hrs by LC-MS/MS analysis; type: ADME, cell-free, Macaca fascicularis
[7] = Half life in African green monkey assessed as prodrug conversion by measuring (2R,3R,4S,5R)-2-(4-aminopyrrolo[2,1-f][1,2,4]triazin-7-yl)-3,4-dihydroxy-5-(hydroxymethyl)tetrahydrofuran-2-carbonitrile at 60 mg/kg, po measured upto 24 hrs by LC-MS/MS analysis; type: ADME, organism-based; conditions: chlorocebus sabaeus, in vivo
[8] = Oral bioavailability in African green monkey assessed as prodrug conversion by measuring (2R,3R,4S,5R)-2-(4-aminopyrrolo[2,1-f][1,2,4]triazin-7-yl)-3,4-dihydroxy-5-(hydroxymethyl)tetrahydrofuran-2-carbonitrile at 86.5 mg/kg measured upto 24 hrs by LC-MS/MS analysis; type: ADME, organism-based; conditions: chlorocebus sabaeus, in vivo
SARS-CoV-2 [9] = experiment: Antiviral activity against SARS-CoV-2 infected in African green monkey assessed as reduction in viral genomic RNA load in throat swabs at 120 mg/kg, po qd administered for 4 days starting from 8 hrs post infection by RT-qPCR analysis; type: functional, organism-based; conditions: Severe acute respiratory syndrome coronavirus 2, time 4.0 day
SARS-CoV-2 [10] = experiment: Antiviral activity against SARS-CoV-2 infected in African green monkey assessed as reduction in viral genomic RNA load in terminal respiratory tissue at 60 to 120 mg/kg, po qd administered for 6 days starting from 8 hrs post infection by RT-qPCR analysis; type: functional, organism-based; conditions: Severe acute respiratory syndrome coronavirus 2, dose lower 60.0 mg/kg, dose upper […], time 6.0 day
[11] = Stability of compound in dog liver S9 fraction assessed as half life at pH 7.4 measured upto 90 mins by LC-MS/MS analysis; type: ADME, subcellular, Canis lupus familiaris
[12] = Stability of compound in dog gastrointestinal S9 fraction assessed as half life at pH 7.4 measured upto 120 mins by LC-MS/MS analysis; type: ADME, subcellular, Canis lupus familiaris, Gastrointestinal tract
[13] = AUC(0 to 24 hrs) in African green monkey at 60 mg/kg, po measured upto 24 hrs by LC-MS/MS analysis; type: ADME, organism-based; design: dose 60 mg/kg, time < 24 hrs, route po; conditions: chlorocebus sabaeus, in vivo
CES1b = experiment: Stability of compound assessed as human recombinant CES1b-mediated compound hydrolysis by measuring half life at pH 7.4 using oseltamivir as substrate measured upto 120 mins by LC-MS/MS analysis; type: ADME; conditions: pH 7.4, probe oseltamivir
[14] = Stability of compound in cynomolgus monkey liver S9 fraction assessed as half life at pH 7.4 measured upto 90 mins by LC-MS/MS analysis; type: ADME, subcellular, Macaca fascicularis
SARS-CoV-2 [15] = experiment: Antiviral activity against SARS-CoV-2 infected in African green monkey assessed as reduction in genomic RNA load in BALF at 60 mg/kg, po qd administered for 1 day starting from 8 hrs post infection by RT-qPCR analysis; type: functional, organism-based; conditions: Severe acute respiratory syndrome coronavirus 2
[16] = Half life in rat assessed as prodrug conversion by measuring (2R,3R,4S,5R)-2-(4-aminopyrrolo[2,1-f][1,2,4]triazin-7-yl)-3,4-dihydroxy-5-(hydroxymethyl)tetrahydrofuran-2-carbonitrile at 6 mg/kg, po measured upto 24 hrs by LC-MS/MS analysis; type: ADME, organism-based; conditions: in vivo
[17] = AUC(0 to 24 hrs) in African green monkey assessed as prodrug conversion by measuring (2R,3R,4S,5R)-2-(4-aminopyrrolo[2,1-f][1,2,4]triazin-7-yl)-3,4-dihydroxy-5-(hydroxymethyl)tetrahydrofuran-2-carbonitrile at 86.5 mg/kg, po measured upto 24 hrs by LC-MS/MS analysis; type: ADME, organism-based; design: dose 86.5 mg/kg, time < 24 hrs, route po; conditions: chlorocebus sabaeus, in vivo
[18] = AUC(0 to 24 hrs) in dog assessed as prodrug conversion by measuring (2R,3R,4S,5R)-2-(4-aminopyrrolo[2,1-f][1,2,4]triazin-7-yl)-3,4-dihydroxy-5-(hydroxymethyl)tetrahydrofuran-2-carbonitrile at […], po measured upto 24 hrs by LC-MS/MS analysis; type: ADME, organism-based, Canis lupus familiaris; conditions: in vivo
SARS-CoV-2 [19] = experiment: Antiviral activity against SARS-CoV-2 infected in African green monkey assessed as reduction in viral genomic RNA load in throat swabs at 60 to 120 mg/kg, po qd administered for 2 days starting from 8 hrs post infection by RT-qPCR analysis; type: functional, organism-based; conditions: Severe acute respiratory syndrome coronavirus 2, dose lower 60.0 mg/kg, dose upper […], time 2.0 day
[20] = AUC(0 to 24 hrs) in cynomolgus monkey assessed as prodrug conversion by measuring (2R,3R,4S,5R)-2-(4-aminopyrrolo[2,1-f][1,2,4]triazin-7-yl)-3,4-dihydroxy-5-(hydroxymethyl)tetrahydrofuran-2-carbonitrile at 11.7 mg/kg, po measured upto 24 hrs by LC-MS/MS analysis; type: ADME, organism-based, Macaca fascicularis; design: dose 11.7 mg/kg, time < 24 hrs, route po; conditions: in vivo
SARS-CoV-2 [21] = experiment: Antiviral activity against SARS-CoV-2 infected in African green monkey assessed as reduction in genomic RNA load in BALF at 60 to 120 mg/kg, po qd administered for 6 days starting from 8 hrs post infection by RT-qPCR analysis; type: functional, organism-based; conditions: Severe acute respiratory syndrome coronavirus 2, dose lower 60.0 mg/kg, dose upper […], time 6.0 day
[22] = Cmax in rat assessed as prodrug conversion by measuring (2R,3R,4S,5R)-2-(4-aminopyrrolo[2,1-f][1,2,4]triazin-7-yl)-3,4-dihydroxy-5-(hydroxymethyl)tetrahydrofuran-2-carbonitrile at 6 mg/kg, po measured upto 24 hrs by LC-MS/MS analysis; type: ADME, organism-based; design: dose 6 mg/kg, time < 24 hrs, route po; conditions: in vivo
[23] = AUC(0 to 24 hrs) in African green monkey assessed as prodrug conversion by measuring (2R,3R,4S,5R)-2-(4-aminopyrrolo[2,1-f][1,2,4]triazin-7-yl)-3,4-dihydroxy-5-(hydroxymethyl)tetrahydrofuran-2-carbonitrile at […], po measured upto 24 hrs by LC-MS/MS analysis; type: ADME, organism-based; conditions: chlorocebus sabaeus, in vivo
[24] = Half life in African green monkey assessed as prodrug conversion by measuring (2R,3R,4S,5R)-2-(4-aminopyrrolo[2,1-f][1,2,4]triazin-7-yl)-3,4-dihydroxy-5-(hydroxymethyl)tetrahydrofuran-2-carbonitrile at […], po measured upto 24 hrs by LC-MS/MS analysis; type: ADME, organism-based; conditions: chlorocebus sabaeus, in vivo
[25] = AUC(0 to 24 hrs) in dog at […], po measured upto 24 hrs by LC-MS/MS analysis; type: ADME, organism-based, Canis lupus familiaris; conditions: in vivo
[26] = Prodrug conversion in SARS-CoV-2 infected in African green monkey assessed as (2R,3R,4S,5R)-2-(4-aminopyrrolo[2,1-f][1,2,4]triazin-7-yl)-3,4-dihydroxy-5-(hydroxymethyl)tetrahydrofuran-2-carbonitrile mediated log10 reduction of genomic RNA at 60 mg/kg, po qd measured after 6 days by RT-qPCR analysis; type: ADME, organism-based, Severe acute respiratory syndrome coronavirus 2; conditions: in vivo, time 6 day

Work on `CCC(CC)COC(=O)[C@H](C)N[P@](=O)(OC[C@H]1O[C@@](C#N)(c2ccc3c(N)ncnn23)[C@H](O)[C@@H]1O)Oc1ccccc1` yielded a CC50 at 120 h [1] of 14.8 µM.
For `N#C[C@@]1(c2ccc3c(N)ncnn23)O[C@H](CO)[C@@H](O)[C@H]1O` [GS-441524], the AUC [2] was 3.97 µM·h, the bioavailability at 24 h (in vivo) was 89% and the AUC [3] was 3.15 µM·h. For the same molecule, the AUC [4] was 1.67 µM·h.
Work on `CC(C)C(=O)OC[C@H]1O[C@@](C#N)(c2ccc3c(N)ncnn23)[C@H](O)[C@@H]1O` [OBELDESIVIR] yielded a half-life [5] of 412 min, a CC50 (PBMC) greater than 100 µM and a half-life [6] of 9.7 min. For the same molecule, the t1/2 [7] was 174 min, the F [8] was 27% and the Activity (SARS-CoV-2 [9]) was “Active”. The Activity (SARS-CoV-2 [10]) was “Active”, the half-life at […] [11] was 4.3 min and the half-life [12] was less than 2 min. The AUC [13] was 0.03 µM·h, the half-life (CES1b) was 4 min and the half-life at […] [14] was less than 2 min. For the same molecule, the Activity (SARS-CoV-2 [15]) was “inactive”, the t1/2 [16] was 121 min and the AUC [17] was 136 µM·h. For the same molecule, the AUC [18] was 202 µM·h, the Activity (SARS-CoV-2 [19]) was “Active” and the AUC [20] was 21.6 µM·h. For the same molecule, the Activity (SARS-CoV-2 [21]) was “Active”, the Cmax [22] was 2100 nM and the AUC [23] was 26.6 µM·h. For the same molecule, the t1/2 [24] was 191 min, the AUC [25] was 0.4 µM·h and the “log(activity)” value [26] was -1.41.
